Experimental findings from patent publication US10457655B2, “Compounds and compositions for inhibition of FASN” (FORMA Therapeutics, Inc., priority 2013, dated 2019) are described below.

For one experiment, the target named is FASN enzyme (Homo sapiens, UniProt P49327). Description: Enzymatic Assay for FASN Inhibitors. The format is biochemical. An outline of the steps: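 40 nM FASN preincubated with compound 60 min at 25° C in HEPES pH 7.3 buffer with 0.04% Triton X-100. Then 20 μM acetyl-CoA, 60 μM malonyl-CoA and 100 μM NADPH added for 90 min, quenched with CPM thiol probe; fluorescence 360/530 nm, IC50 by four-parameter fit.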

For a further experiment, the system named is PC3 cells. Description: Cell Proliferation Assays for FASN Inhibitors (PC3 cells, MTT). Format: cell-based. The following applies: Homo sapiens, PC-3, 96 h. How it is done:
The effects of the FASN inhibitors on cultured cancer cell proliferation were studies with cell proliferation assays. PC3 cells were maintained at standard culture media (F12K media supplemented with 10% fetal bovine serum, 1×MEM nonessential amino acid and 1× penicillin/streptomycin). 2000-3000 cells/100 μL/well was seeded in a 96-well clear culture plate. The cells were incubated overnight in 5% CO2 at 37° C. for attachment. Cell media were removed and replaced with F12K media containing 10% lipid reduced serum and compound. The final DMSO concentration is 0.1%. The cells were maintained in 5% CO2 at 37° C. for 4 days. The viability of cells was determined by MTT assays. The IC50 of a given compound was calculated by fitting the dose response curve with a four parameter logistic equation.

Where [1] appears, read: read-out: IC50 (uM) < 0.5, 10% lipid reduced serum, 4 days, Table 3-1.
[2] abbreviates: read-out: IC50 (uM) ≥ 0.5, 10% lipid reduced serum, 4 days, Table 3-2.

Read-outs that look alike come from different tables or passages of the source. Some results are limits rather than exact numbers.

Sequence of FASN enzyme (P49327 whole entry): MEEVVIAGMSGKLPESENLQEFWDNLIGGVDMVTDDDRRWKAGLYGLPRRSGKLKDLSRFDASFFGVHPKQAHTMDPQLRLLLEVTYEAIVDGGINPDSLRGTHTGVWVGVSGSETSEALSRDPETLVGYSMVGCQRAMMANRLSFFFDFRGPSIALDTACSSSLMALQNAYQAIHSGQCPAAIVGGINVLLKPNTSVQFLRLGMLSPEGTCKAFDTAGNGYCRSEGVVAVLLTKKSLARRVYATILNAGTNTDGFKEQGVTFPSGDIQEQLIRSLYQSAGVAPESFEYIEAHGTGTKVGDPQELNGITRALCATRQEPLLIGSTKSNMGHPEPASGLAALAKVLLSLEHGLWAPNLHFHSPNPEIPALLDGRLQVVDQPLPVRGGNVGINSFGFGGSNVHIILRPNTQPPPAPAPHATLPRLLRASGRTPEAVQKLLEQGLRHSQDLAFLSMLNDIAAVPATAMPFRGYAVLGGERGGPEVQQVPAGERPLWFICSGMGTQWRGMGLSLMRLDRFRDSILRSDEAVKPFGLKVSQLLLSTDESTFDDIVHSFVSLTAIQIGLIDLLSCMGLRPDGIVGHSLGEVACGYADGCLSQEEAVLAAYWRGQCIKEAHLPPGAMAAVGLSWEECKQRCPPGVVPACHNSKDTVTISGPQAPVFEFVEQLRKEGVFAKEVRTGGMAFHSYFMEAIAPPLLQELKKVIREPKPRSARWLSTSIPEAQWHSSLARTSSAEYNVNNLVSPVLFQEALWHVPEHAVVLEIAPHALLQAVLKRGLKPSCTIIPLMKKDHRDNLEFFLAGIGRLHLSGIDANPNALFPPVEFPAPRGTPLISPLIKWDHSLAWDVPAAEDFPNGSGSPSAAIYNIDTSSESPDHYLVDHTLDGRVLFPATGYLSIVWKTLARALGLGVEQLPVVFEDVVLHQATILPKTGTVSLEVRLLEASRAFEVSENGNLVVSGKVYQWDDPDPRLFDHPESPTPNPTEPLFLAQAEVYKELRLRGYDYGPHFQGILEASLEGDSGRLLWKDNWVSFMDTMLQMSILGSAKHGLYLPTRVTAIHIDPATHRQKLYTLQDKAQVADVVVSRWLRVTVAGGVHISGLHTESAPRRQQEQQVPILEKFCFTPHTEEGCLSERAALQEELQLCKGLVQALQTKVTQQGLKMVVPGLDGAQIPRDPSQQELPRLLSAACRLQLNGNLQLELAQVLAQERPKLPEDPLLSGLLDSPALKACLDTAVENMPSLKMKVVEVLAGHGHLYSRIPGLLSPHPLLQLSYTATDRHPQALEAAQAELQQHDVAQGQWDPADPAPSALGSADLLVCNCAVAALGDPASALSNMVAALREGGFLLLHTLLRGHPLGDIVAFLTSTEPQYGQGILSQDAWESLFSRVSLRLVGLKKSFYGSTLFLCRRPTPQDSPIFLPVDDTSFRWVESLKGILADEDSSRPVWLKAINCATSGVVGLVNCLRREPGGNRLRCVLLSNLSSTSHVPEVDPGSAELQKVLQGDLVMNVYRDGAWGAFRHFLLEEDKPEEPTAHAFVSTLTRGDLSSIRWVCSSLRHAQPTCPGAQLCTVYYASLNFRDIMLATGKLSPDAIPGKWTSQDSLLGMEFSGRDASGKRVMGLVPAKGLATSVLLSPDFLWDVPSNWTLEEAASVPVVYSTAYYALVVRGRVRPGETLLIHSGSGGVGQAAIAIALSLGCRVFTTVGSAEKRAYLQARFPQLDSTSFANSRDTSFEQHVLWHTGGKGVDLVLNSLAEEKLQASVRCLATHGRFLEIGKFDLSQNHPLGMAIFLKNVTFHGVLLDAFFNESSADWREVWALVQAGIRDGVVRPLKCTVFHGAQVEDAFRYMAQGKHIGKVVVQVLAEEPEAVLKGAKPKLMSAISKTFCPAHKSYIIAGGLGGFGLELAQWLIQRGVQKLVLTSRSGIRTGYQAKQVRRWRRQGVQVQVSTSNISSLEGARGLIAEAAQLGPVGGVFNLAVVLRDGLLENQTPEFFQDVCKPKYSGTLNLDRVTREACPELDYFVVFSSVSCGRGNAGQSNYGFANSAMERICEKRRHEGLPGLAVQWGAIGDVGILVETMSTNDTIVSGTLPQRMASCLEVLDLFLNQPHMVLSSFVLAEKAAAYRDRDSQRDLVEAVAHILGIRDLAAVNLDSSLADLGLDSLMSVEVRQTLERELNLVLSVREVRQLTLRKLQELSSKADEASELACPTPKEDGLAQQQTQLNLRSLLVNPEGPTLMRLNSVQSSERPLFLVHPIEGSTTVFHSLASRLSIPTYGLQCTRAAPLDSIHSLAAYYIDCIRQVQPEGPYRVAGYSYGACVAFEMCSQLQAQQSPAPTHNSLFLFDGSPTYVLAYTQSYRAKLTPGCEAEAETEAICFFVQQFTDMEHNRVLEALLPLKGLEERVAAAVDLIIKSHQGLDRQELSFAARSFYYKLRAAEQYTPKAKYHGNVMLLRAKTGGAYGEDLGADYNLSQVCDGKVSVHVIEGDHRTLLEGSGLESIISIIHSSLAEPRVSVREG

For the compound `N#Cc1c[nH]c2ccc(-c3ccc(C(=O)N4CCN(C(=O)C5(O)CC5)CC4)cc3Cl)cc12`, the 50% inhibitory concentration (IC50) at FASN enzyme and with PC3 cells (setting [1]) was under 0.5 µM each time.
As to `Cn1ccc2cc(-c3ccc(C(=O)N4CCN(C(=O)C5(O)CC5)CC4)c(Cl)c3)ccc21` [1-[(4-{[2-chloro-4-(1-methyl-1H-indol-5-yl)phenyl]carbonyl}piperazin-1-yl)carbonyl]cyclopropan-1-ol], the IC50 on FASN enzyme and in the experiment with PC3 cells (setting [1]) was under 0.5 µM each time.
Take `O=C(c1ccc(-c2nc3ccc(Cl)cc3o2)cc1)N1CCN(C(=O)C2(O)CC2)CC1` [1-[(4-{[4-(6-chloro-1,3-benzoxazol-2-yl)phenyl]carbonyl}piperazin-1-yl)carbonyl]cyclopropan-1-ol]: the IC50 against FASN enzyme and in the experiment on PC3 cells (setting [1]) was under 0.5 µM throughout.
In the case of `O=C(c1ccc(-c2cccc3[nH]ccc23)cc1)N1CCN(C(=O)C2(O)CC2)CC1` [1-[(4-{[4-(1H-indol-4-yl)phenyl]carbonyl}piperazin-1-yl)carbonyl]cyclopropan-1-ol], the IC50 on FASN enzyme and with PC3 cells (setting [1]) was under 0.5 µM throughout.
Consider `O=C(c1ccc(-c2ccc3occc3n2)cc1)N1CCN(C(=O)C2(O)CC2)CC1` [1-({4-[(4-{furo[3,2-b]pyridin-5-yl}phenyl)carbonyl]piperazin-1-yl}carbonyl)cyclopropan-1-ol], for which the IC50 against FASN enzyme and with PC3 cells (setting [1]) was under 0.5 µM each time.
As to `O=C(c1ccc(-c2cccc3[nH]cnc23)cc1)N1CCN(C(=O)C2(O)CC2)CC1` [1-[(4-{[4-(1H-1,3-benzodiazol-4-yl)phenyl]carbonyl}piperazin-1-yl)carbonyl]cyclopropan-1-ol], the IC50 on FASN enzyme and in the experiment with PC3 cells (setting [1]) was under 0.5 µM throughout.
Turning to `O=C(c1ccc(-c2ccc3scnc3c2)cc1)N1CCN(C(=O)C2(O)CC2)CC1` [1-[(4-{[4-(1,3-benzothiazol-5-yl)phenyl]carbonyl}piperazin-1-yl)carbonyl]cyclopropan-1-ol], the IC50 against FASN enzyme and with PC3 cells (setting [1]) was under 0.5 µM throughout.
With `O=C(c1ccc(-c2ccc(Cl)cc2Cl)cc1)N1CCN(C(=O)C2(O)CC2)CC1` [1-[(4-{[4-(2,4-dichlorophenyl)phenyl]carbonyl}piperazin-1-yl)carbonyl]cyclopropan-1-ol], the half-maximal inhibitory concentration (IC50) against FASN enzyme is under 0.5 µM; in the experiment with PC3 cells (setting [2]), at least 0.5 µM.
For `CC(C)n1ccc2cc(-c3ccc(C(=O)N4CCN(C(=O)C5(O)CC5)CC4)cc3Cl)ccc21` [1-{[4-({3-chloro-4-[1-(propan-2-yl)-1H-indol-5-yl]phenyl}carbonyl)piperazin-1-yl]carbonyl}cyclopropan-1-ol], the values for the IC50 against FASN enzyme and in the experiment on PC3 cells (setting [2]) were under 0.5 µM and at least 0.5 µM, respectively.
For `O=C(c1ccc(-c2nc3cc(F)ccc3o2)cc1)N1CCN(C(=O)C2(O)CC2)CC1` [1-[(4-{[4-(5-fluoro-1,3-benzoxazol-2-yl)phenyl]carbonyl}piperazin-1-yl)carbonyl]cyclopropan-1-ol], the IC50 against FASN enzyme and with PC3 cells (setting [1]) was under 0.5 µM in each case.
In the case of `O=C(c1ccc(-c2ccc3[nH]ccc3c2)cc1)N1CCN(C(=O)C2CCO2)CC1` (stereo not drawn) [5-[4-({4-[(oxetan-2-yl)carbonyl]piperazin-1-yl}carbonyl)phenyl]-1H-indole], the IC50 was under 0.5 µM against FASN enzyme and at least 0.5 µM in the experiment on PC3 cells (setting [2]).
Turning to `O=C(c1ccc(-c2ccc3c(ccn3C(F)(F)F)c2)cc1)N1CCN(C(=O)C2(O)CC2)CC1` [1-{[4-({4-[1-(trifluoromethyl)-1H-indol-5-yl]phenyl}carbonyl)piperazin-1-yl]carbonyl}cyclopropan-1-ol], the IC50 was 0.5 to 5 µM on FASN enzyme (FASN enzymatic assay, Table 2-2) and under 0.5 µM in the experiment on PC3 cells (setting [1]).
Consider `O=C(c1ccc(-c2cnc3ccccc3c2)cc1F)N1CCN(C(=O)C2(O)CC2)CC1` [1-[(4-{[2-fluoro-4-(quinolin-3-yl)phenyl]carbonyl}piperazin-1-yl)carbonyl]cyclopropan-1-ol], for which the IC50 against FASN enzyme and in the experiment on PC3 cells (setting [1]) was under 0.5 µM in each case.
As for `COc1cc(-n2cccn2)ccc1-c1ccc(C(=O)N2CCN(C(=O)C3(O)CC3)CC2)cc1`, the concentration for half-maximal inhibition (IC50) at FASN enzyme is under 0.5 µM; in the experiment with PC3 cells (setting [2]) it was at least 0.5 µM.
For the compound `N#Cc1ccc2nc(-c3ccc(C(=O)N4CCN(C(=O)C5(O)CC5)CC4)cc3)oc2c1` [2-[4-({4-[(1-hydroxycyclopropyl)carbonyl]piperazin-1-yl}carbonyl)phenyl]-1,3-benzoxazole-6-carbonitrile], the IC50 against FASN enzyme and in the experiment on PC3 cells (setting [1]) was under 0.5 µM in each case.
Take `O=C(c1ccc(-c2ccc3[nH]ccc3n2)cc1)N1CCN(C(=O)C2(O)CC2)CC1` [1-({4-[(4-{1H-pyrrolo[3,2-b]pyridin-5-yl}phenyl)carbonyl]piperazin-1-yl}carbonyl)cyclopropan-1-ol]: the half-inhibitory concentration (IC50) at FASN enzyme and in the experiment with PC3 cells (setting [1]) was under 0.5 µM each time.
Consider `O=C(c1ccc(-c2ccc3cnccc3c2)cc1)N1CCN(C(=O)C2CCO2)CC1` (stereo not drawn) [6-[4-({4-[(oxetan-2-yl)carbonyl]piperazin-1-yl}carbonyl)phenyl]isoquinoline], for which the IC50 against FASN enzyme and with PC3 cells (setting [1]) was under 0.5 µM each time.
As for `O=C(c1ccc(-c2ccc3scnc3c2)c(F)c1)N1CCN(C(=O)C2(O)CC2)CC1` [1-[(4-{[4-(1,3-benzothiazol-5-yl)-3-fluorophenyl]carbonyl}piperazin-1-yl)carbonyl]cyclopropan-1-ol], the IC50 against FASN enzyme and with PC3 cells (setting [1]) was under 0.5 µM throughout.
For the compound `O=C(c1ccc2nc(-c3ccccc3)sc2c1)N1CCN(C(=O)C2(O)CC2)CC1` [1-({4-[(2-phenyl-1,3-benzothiazol-6-yl)carbonyl]piperazin-1-yl}carbonyl)cyclopropan-1-ol], the half-inhibitory concentration (IC50) against FASN enzyme and in the experiment with PC3 cells (setting [1]) was under 0.5 µM throughout.
Consider `Cn1cc2ccc(-c3ccc(C(=O)N4CCN(C(=O)C5(O)CC5)CC4)cc3)cc2n1` [1-[(4-{[4-(2-methyl-2H-indazol-6-yl)phenyl]carbonyl}piperazin-1-yl)carbonyl]cyclopropan-1-ol], for which the IC50 against FASN enzyme and with PC3 cells (setting [1]) was under 0.5 µM in each case.
Regarding `O=C(c1ccc(-c2cnc3ccccc3c2)cc1)N1CCN(C(=O)C2(O)CCC2)CC1` [1-[(4-{[4-(quinolin-3-yl)phenyl]carbonyl}piperazin-1-yl)carbonyl]cyclobutan-1-ol], the IC50 against FASN enzyme and in the experiment with PC3 cells (setting [1]) was under 0.5 µM throughout.
`O=C(c1ccc(-c2cccc3ncccc23)cc1)N1CCN(C(=O)C2(O)CC2)CC1` [1-[(4-{[4-(quinolin-5-yl)phenyl]carbonyl}piperazin-1-yl)carbonyl]cyclopropan-1-ol]: the IC50 against FASN enzyme and in the experiment with PC3 cells (setting [1]) was under 0.5 µM each time.
For the compound `O=C(c1ccc(-c2cc3ccccc3nc2O)cc1F)N1CCN(C(=O)C2(O)CC2)CC1` [3-[3-fluoro-4-({4-[(1-hydroxycyclopropyl)carbonyl]piperazin-1-yl}carbonyl)phenyl]quinolin-2-ol], the IC50 against FASN enzyme and in the experiment on PC3 cells (setting [1]) was under 0.5 µM throughout.
Regarding `O=C(c1ccc(-c2ccc3scnc3c2)cc1Cl)N1CCN(C(=O)C2(O)CC2)CC1` [1-[(4-{[4-(1,3-benzothiazol-5-yl)-2-chlorophenyl]carbonyl}piperazin-1-yl)carbonyl]cyclopropan-1-ol], the IC50 on FASN enzyme and with PC3 cells (setting [1]) was under 0.5 µM in each case.
As for `O=C(c1ccc(-c2ccc3cnccc3c2)cc1)N1CCN(C(=O)C2(O)CC2)CC1` [1-[(4-{[4-(isoquinolin-6-yl)phenyl]carbonyl}piperazin-1-yl)carbonyl]cyclopropan-1-ol], the IC50 against FASN enzyme and in the experiment with PC3 cells (setting [1]) was under 0.5 µM throughout.
As to `O=C(c1ccc(-c2ccc3ncccc3c2)cc1F)N1CCN(C(=O)C2(O)CC2)CC1` [1-[(4-{[2-fluoro-4-(quinolin-6-yl)phenyl]carbonyl}piperazin-1-yl)carbonyl]cyclopropan-1-ol], the IC50 against FASN enzyme and in the experiment on PC3 cells (setting [1]) was under 0.5 µM each time.
On to `O=C(c1ccc(-c2nc3ccc(F)cc3o2)cc1)N1CCN(C(=O)C2(O)CC2)CC1` [1-[(4-{[4-(6-fluoro-1,3-benzoxazol-2-yl)phenyl]carbonyl}piperazin-1-yl)carbonyl]cyclopropan-1-ol], for which the IC50 on FASN enzyme and in the experiment with PC3 cells (setting [1]) was under 0.5 µM each time.

What is called IC50 is the point on the concentration scale where inhibition reaches its midpoint.
